Measurements reported in article PMC10467532, “Design, synthesis, and biological evaluation of thiazole/thiadiazole carboxamide scaffold-based derivatives as potential c-Met kinase inhibitors for cancer treatment” (Journal of Enzyme Inhibition and Medicinal Chemistry, 2023).

Experiments:
HUVEC = experiment: MTT cytotoxicity assay, normal HUVEC cells; settings: Homo sapiens, 48 h, read-out: IC50 HUVEC
Procedure: (§1) MTT assay was used to determine the cytotoxic activity of target compounds against different cell lines. […] Then, the cells were treated with five doses of test compounds (pre-dissolved in DMSO), and 0.1% DMSO was used as a negative control. […] The results expressed as IC50 were the average of three determinations calculated by using the Bacus Laboratories Incorporated Slide Scanner (Bliss) software.

A549 = experiment: MTT antiproliferative assay, A549; settings: Homo sapiens, A549, 48 h, read-out: IC50 A549
Procedure: as §1

c-Met = biological target: T1, c-Met (Homo sapiens, UniProt P08581); experiment: In vitro c-Met enzymatic assay (HTRF); format: biochemical; settings: for IC50: HTRF assay, mean ± SD, triplicate, read-out: IC50 against c-Met; for fold loss of c-Met inhibitory activity compared to 51w: ratio of c-Met IC50 to that of 51w
T1 construct: purchased Invitrogen (Waltham, MA)
Procedure: Inhibition of target compounds on c-Met kinase activity was measured by using the homogeneous time-resolved fluorescence (HTRF) assay.
The tyrosine kinases inhibitory activities of target compounds were evaluated in 384-well microtiter plates using purified kinases purchased from Invitrogen (Waltham, MA) by homogeneous time-resolved fluorescence (HTRF) assay. The HTRF KinEASE TK kit was performed according to the instructions. After the kinases and test compounds were incubated at 25–30 °C for 5 min, the kinase reactions were initiated by addition of 39 μL of kinase reaction buffer solution and incubated at 25–30 °C for 30 min. The reactions were quenched by addition 10 µL mixed detection solution. […] The inhibition rate (%) was calculated using the following equation: inhibition rate = [(activity of enzyme with tested compound – min)/(max – min)] × 100 (max: the enzyme activity in the presence of enzyme, substrates and cofactors; min: the enzyme activity in the presence of substrates, cofactors and in the absence of enzyme). IC50 value was calculated from the inhibition curve using GraphPad Prism 5.0 software (La Jolla, CA).

HT-29 = experiment: MTT antiproliferative assay, HT-29; settings: Homo sapiens, HT-29, 48 h, read-out: IC50 HT-29
Procedure: as §1

MDA-MB-231 = experiment: MTT antiproliferative assay, MDA-MB-231; settings: Homo sapiens, MDA-MB-231, 48 h, read-out: IC50 MDA-MB-231
Procedure: as §1

FHC = experiment: MTT cytotoxicity assay, normal FHC cells; settings: Homo sapiens, 48 h, read-out: IC50 FHC
Procedure: as §1

MKN-45 = experiment: MTT antiproliferative assay, MKN-45; settings: Homo sapiens, MKN-45, 48 h, read-out: IC50 MKN-45
Procedure: as §1

T1 sequence (P08581 25-1390): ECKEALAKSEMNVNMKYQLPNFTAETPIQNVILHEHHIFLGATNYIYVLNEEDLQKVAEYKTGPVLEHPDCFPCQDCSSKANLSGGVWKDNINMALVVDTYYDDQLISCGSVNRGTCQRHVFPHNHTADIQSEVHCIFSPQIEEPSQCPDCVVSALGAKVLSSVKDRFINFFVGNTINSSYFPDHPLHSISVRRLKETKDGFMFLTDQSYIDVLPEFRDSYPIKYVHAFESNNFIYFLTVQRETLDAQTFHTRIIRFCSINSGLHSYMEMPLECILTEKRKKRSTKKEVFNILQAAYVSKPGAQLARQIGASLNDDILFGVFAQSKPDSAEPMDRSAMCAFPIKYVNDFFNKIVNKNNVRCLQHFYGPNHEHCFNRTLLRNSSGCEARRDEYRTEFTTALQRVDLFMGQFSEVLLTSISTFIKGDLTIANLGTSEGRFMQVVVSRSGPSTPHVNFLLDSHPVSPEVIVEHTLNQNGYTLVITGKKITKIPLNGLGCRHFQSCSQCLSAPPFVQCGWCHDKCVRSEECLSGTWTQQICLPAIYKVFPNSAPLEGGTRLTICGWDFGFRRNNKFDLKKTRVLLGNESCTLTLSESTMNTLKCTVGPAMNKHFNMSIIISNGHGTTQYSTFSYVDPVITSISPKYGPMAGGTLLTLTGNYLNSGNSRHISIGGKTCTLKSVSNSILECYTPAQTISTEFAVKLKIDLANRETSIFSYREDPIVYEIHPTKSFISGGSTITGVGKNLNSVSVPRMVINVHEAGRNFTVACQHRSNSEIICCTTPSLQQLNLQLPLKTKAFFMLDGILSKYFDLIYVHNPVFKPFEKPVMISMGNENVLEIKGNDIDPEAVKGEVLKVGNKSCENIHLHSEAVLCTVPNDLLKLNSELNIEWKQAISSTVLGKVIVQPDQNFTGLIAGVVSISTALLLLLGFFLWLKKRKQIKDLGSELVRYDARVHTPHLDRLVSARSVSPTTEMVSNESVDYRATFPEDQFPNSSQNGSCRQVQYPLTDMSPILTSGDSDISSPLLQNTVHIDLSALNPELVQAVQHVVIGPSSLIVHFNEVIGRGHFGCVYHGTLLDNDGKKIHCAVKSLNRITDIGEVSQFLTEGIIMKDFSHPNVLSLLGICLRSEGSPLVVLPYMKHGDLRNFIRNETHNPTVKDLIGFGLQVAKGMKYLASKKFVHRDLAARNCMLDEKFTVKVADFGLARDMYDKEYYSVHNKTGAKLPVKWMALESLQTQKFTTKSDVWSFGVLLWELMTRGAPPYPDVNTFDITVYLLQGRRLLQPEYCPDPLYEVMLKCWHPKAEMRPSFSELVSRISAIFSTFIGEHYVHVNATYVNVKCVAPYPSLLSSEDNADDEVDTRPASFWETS

| Compound | IC50 (A549) [µM] | IC50 (c-Met) [µM] | IC50 (HT-29) [µM] | melting point [°C] | IC50 (MDA-MB-231) [µM] | IC50 (MKN-45) [µM] | fold loss of c-Met inhibitory activity compared to 51w (c-Met) [fold] | IC50 (HUVEC) [µM] | IC50 (FHC) [µM] |
| --- | --- | --- | --- | --- | --- | --- | --- | --- | --- |
| COc1cc2nccc(Oc3ccc(NC(=O)c4nc(-c5ccccc5)ns4)cc3)c2cc1OC [Compound 51a, N-(4-((6,7-Dimethoxyquinolin-4-yl)oxy)phenyl)-3-phenyl-1,2,4-thiadiazole-5-carboxamide] | 26.4 ± 1.24 | 0.0566 ± 0.00482 | 24.4 ± 1.68 | 145 to 147 | > 50 | 9.25 ± 0.86 |  | > 100 | > 100 |
| O=C(Nc1ccc(Oc2ccnc(Cl)c2)c(F)c1)c1nc(-c2ccccc2F)cs1 [Compound 51ac, N-(4-((2-Chloropyridin-4-yl)oxy)-3-fluorophenyl)-4-(2-fluorophenyl)thiazole-2-carboxamide] | 7.54 ± 0.62 | 0.0185 ± 0.00305 | 9.53 ± 0.75 | 168 to 170 | 18.1 ± 2.14 | 1.94 ± 0.26 |  | 19.4 ± 0.83 | 31.3 ± 2.63 |
| O=C(Nc1ccc(Oc2ccnc(Cl)c2)c(F)c1)c1nc(-c2ccc(C(F)(F)F)cc2)cs1 [Compound 51ag, N-(4-((2-Chloropyridin-4-yl)oxy)-3-fluorophenyl)-4-(4(trifluoromethyl)phenyl)thiazole-2-carboxamide] | 12.4 ± 2.85 | 0.0394 ± 0.00525 | 20.4 ± 3.02 | 212 to 214 | 30.6 ± 2.64 | 5.84 ± 1.21 |  | 43.2 ± 3.53 |  |
| O=C(Nc1ccc(Oc2ccnc(Cl)c2)c(F)c1)c1nc(-c2ccc3ccccc3c2)cs1 [Compound 51ai, N-(4-((2-Chloropyridin-4-yl)oxy)-3-fluorophenyl)-4-(naphthalen-2-yl)thiazole-2-carboxamide] | 15.3 ± 2.81 | 0.0614 ± 0.00458 | 21.5 ± 1.58 | 182 to 184 | 30.3 ± 2.16 | 6.12 ± 1.38 | 2.6 | > 100 | > 100 |
| O=C(Nc1ccc(Oc2ccnc(Cl)c2)c(F)c1)c1nc(-c2cccs2)cs1 [Compound 51aj, N-(4-((2-chloropyridin-4-yl)oxy)-3-fluorophenyl)-4-(thiophen-2-yl)thiazole-2-carboxamide] | 11.5 ± 2.17 | 0.0495 ± 0.00536 | 17.5 ± 2.44 | 184 to 186 | 25.9 ± 3.41 | 4.55 ± 0.91 | 2.1 | 52.3 ± 3.74 | > 100 |
| COc1cc2nccc(Oc3ccc(NC(=O)c4nc(-c5ccc(F)cc5)cs4)cc3)c2cc1OC [Compound 51f, N-(4-((6,7-Dimethoxyquinolin-4-yl)oxy)phenyl)-4-(4-fluorophenyl)thiazole-2-carboxamide] | 14.7 ± 3.27 | 0.0291 ± 0.00353 | 22.4 ± 1.94 | 84 to 86 | 31.8 ± 2.56 | 4.95 ± 0.82 |  | 45.5 ± 3.83 |  |
| COc1cc2nccc(Oc3ccc(NC(=O)c4nc(-c5ccccc5)cs4)cc3C)c2cc1OC [Compound 51n, N-(4-((6,7-Dimethoxyquinolin-4-yl)oxy)-3-methylphenyl)-4-phenylthiazole-2-carboxamide] | 17.5 ± 2.25 | 0.0456 ± 0.00603 | 24.4 ± 2.14 | 136 to 138 |  | 7.21 ± 0.95 |  | > 100 | > 100 |
| COc1ccc(-c2csc(C(=O)Nc3ccc(Oc4ccnc(Cl)c4)c(F)c3)n2)cc1 [Compound 51y, N-(4-((2-Chloropyridin-4-yl)oxy)-3-fluorophenyl)-4-(4-methoxyphenyl)thiazole-2-carboxamide] | 9.28 ± 1.85 | 0.0367 ± 0.00297 | 14 ± 2.26 | 191 to 193 | 28.5 ± 2.35 | 3.22 ± 0.86 |  | 32.4 ± 1.98 |  |

The next lines start with results.

| IC50 (A549) [µM] | IC50 (c-Met) [µM] | IC50 (HT-29) [µM] | melting point [°C] | IC50 (MDA-MB-231) [µM] | IC50 (MKN-45) [µM] | fold loss of c-Met inhibitory activity compared to 51w (c-Met) [fold] | Compound | IC50 (HUVEC) [µM] | IC50 (FHC) [µM] |
| --- | --- | --- | --- | --- | --- | --- | --- | --- | --- |
| 4.83 ± 0.72 | 0.0156 ± 0.00243 | 4.36 ± 0.38 | 150 to 152 | 11.7 ± 1.39 | 0.95 ± 0.18 |  | O=C(Nc1ccc(Oc2ccnc(Cl)c2)c(F)c1)c1nc(-c2ccc(F)cc2)cs1 [Compound 51aa, N-(4-((2-Chloropyridin-4-yl)oxy)-3-fluorophenyl)-4-(4-fluorophenyl)thiazole-2-carboxamide] | 15.3 ± 2.16 | 24.6 ± 4.23 |
| 6.02 ± 0.87 | 0.0232 ± 0.00216 | 6.95 ± 0.82 | 189 to 191 | 10.1 ± 1.88 | 1.49 ± 0.63 |  | O=C(Nc1ccc(Oc2ccnc(Cl)c2)c(F)c1)c1nc(-c2cccc(F)c2)cs1 [Compound 51ab, N-(4-((2-Chloropyridin-4-yl)oxy)-3-fluorophenyl)-4-(3-fluorophenyl)thiazole-2-carboxamide] | 12.7 ± 0.83 | 20.2 ± 3.62 |
| 6.75 ± 0.55 | 0.0178 ± 0.00182 | 8.04 ± 0.93 | 167 to 169 | 15.2 ± 1.46 | 1.74 ± 0.23 |  | O=C(Nc1ccc(Oc2ccnc(Cl)c2)c(F)c1)c1nc(-c2ccc(Cl)cc2)cs1 [Compound 51ad, 4-(4-Chlorophenyl)-N-(4-((2-chloropyridin-4-yl)oxy)-3-fluorophenyl)thiazole-2-carboxamide] | 18.5 ± 2.04 | 26.5 ± 1.28 |
| 7.08 ± 0.95 | 0.0234 ± 0.00361 | 9.62 ± 1.56 | 171 to 173 | 19.2 ± 2.35 | 1.95 ± 0.68 |  | O=C(Nc1ccc(Oc2ccnc(Cl)c2)c(F)c1)c1nc(-c2cccc(Cl)c2)cs1 [Compound 51ae, 4-(3-Chlorophenyl)-N-(4-((2-chloropyridin-4-yl)oxy)-3-fluorophenyl)thiazole-2-carboxamide] | 13.1 ± 0.95 | 24.5 ± 1.84 |
| 8.23 ± 1.42 | 0.0192 ± 0.00144 | 11.7 ± 1.63 | 192 to 194 | 20.5 ± 3.65 | 2.06 ± 0.45 |  | O=C(Nc1ccc(Oc2ccnc(Cl)c2)c(F)c1)c1nc(-c2ccc(Br)cc2)cs1 [Compound 51af, 4-(4-Bromophenyl)-N-(4-((2-chloropyridin-4-yl)oxy)-3-fluorophenyl)thiazole-2-carboxamide] | 11.5 ± 0.83 | 21.6 ± 2.82 |
| 3.17 ± 0.51 | 0.00926 ± 0.00134 | 2.78 ± 0.49 | 195 to 197 | 7.29 ± 1.22 | 0.53 ± 0.42 |  | O=C(Nc1ccc(Oc2ccnc(Cl)c2)c(F)c1)c1nc(-c2ccc(Cl)c(Cl)c2)cs1 [Compound 51ah, N-(4-((2-Chloropyridin-4-yl)oxy)-3-fluorophenyl)-4-(3,4-dichlorophenyl)thiazole-2-carboxamide] | 12.4 ± 0.85 | 20.4 ± 1.86 |
| 1.81 ± 0.34 | 0.00389 ± 0.00052 | 1.56 ± 0.32 | 168 to 170 | 4.24 ± 0.68 | 0.22 ± 0.04 |  | O=C(Nc1ccc(Oc2ccnc(Cl)c2)c(F)c1)c1nc(-c2ccc(F)c(Cl)c2)cs1 [Compound 51ak, 4-(3-Chloro-4-fluorophenyl)-N-(4-((2-chloropyridin-4-yl)oxy)-3-fluorophenyl)thiazole-2-carboxamide] | 8.52 ± 1.35 | 13.2 ± 0.84 |
